In US5043328A, “Formulations containing unsaturated fatty acids for the synthesis of prostaglandins and hydroxy-fatty acids in biological systems” (priority 1986, dated 1991):
Like-named read-outs stand apart in the source and are kept apart here.

Experiments:
[1] = for Stability (% remaining fatty acid by Method 1) / Stabilization (% remaining unsaturated fatty acid by Method 1): 1440 min; for Stability (% of remaining arachidonic acid by Method 1): 24 h 37° C.; for undesired decomposition / byproducts of polyunsaturated fatty acid (arachidonic acid) with added stimulator: aqueous medium, result in words
Protocol: Method 1: Investigation of the Stability of Unsaturated Fatty Acids in the Formulations
The stabilizing action of substances on polyunsaturated fatty acids was investigated as follows:
Test A for Water-Soluble Substances:
0.125 mg of unsaturated fatty acid or Na salt (see tables) (sodium arachidonate, from Sigma, Munich, Germany) is dissolved in 0.05 ml of water. 0.2 ml of aqueous solution which contains 2 mg of stabilizer and can additionally contain 2 mg of stimulator is mixed in (cf. Table 1), 0.1 ml is then taken out immediately, extracted and analysed (see below). Further processing according to modification 1 or 2.
Modification 1 for Aqueous Solutions
After 24 hours incubation at 37° C., 0.1 ml is again taken, extracted and analysed (see below).
Modification 2 for Solid Mixtures (Lyophilisates)
The test solution is lyophilized, the lyophilisate is incubated for 24 hours at 37° C. and then dissolved again in the previous quantity of water, and 0.1 ml is taken, extracted and analysed (see below).
Test B for Water-Insoluble Substances:
0.125 mg of unsaturated fatty acid (arachidonic acid, 5,8,11,14,17-eicosapentaenoic acid or 8,11,14-eicosatrienoic acid, from Sigma, Munich) is dissolved in 0.05 ml of ethanol or dimethyl sulfoxide. 0.2 ml of ethanol (or dimethyl sulfoxide) which contains 2 mg of stabilizer and can additionally contain 2 mg of the stimulator (cf. Table 1) is added thereto, and 0.1 ml is taken immediately and, as below, extracted and analysed. Further treatment according to modification 1 or 2.
Modification 1 for Solutions
After 24 hours' incubation at 37° C., 0.1 ml is again taken, mixed with 0.1 ml of water, extracted and analysed.
Modification 2 for Solid Mixtures
The remaining solution is freed of solvent, incubated for 24 hours at 37° C. and then dissolved again in 0.15 ml of solvent, and 0.1 ml is taken, mixed with 0.1 ml of water, extracted and analysed.
0.05 ml of 1.2M aqueous citric acid solution is added to the samples obtained, and the samples are extracted with twice 0.5 ml of ethyl acetate, the ethyl acetate is removed from the combined extracts and the residue is dissolved in 0.8 ml of methanol and analysed by means of high-pressure liquid chromatography (HPLC) (Rad Pak C-18 column, 100×8 mm, from Waters, Konigstein, Germany, 1.5 ml/minute, solvent 800 ml of methanol, 200 ml of water and 0.1 ml of glacial acetic acid). The separation is monitored with a commercially available UV detector at 206 nm.
The prostaglandins PGE2, PGF2 alpha and PGD2 as products from arachidonic acid where quantified by means of method 2, and the sum was related as "total prostaglandin" to 100%. The quantity of "total prostaglandin" formed without the addition of a stimulator was set at f=1; the quantity formed after stimulation was related thereto. f=2 or f=3 therefore means twice or three times the stimulation under the conditions of method 2. The stability of the sample was investigated by means of method 1 (right-hand column). […] Values greater than 25-28% therefore represent a stabilization, and values smaller than 25-28% represent a destabilization. Example No. 1 was carried out without a stimulator.

[2] = target: T1, enzyme (from seminal vesicles of sheep) (Ovis aries, UniProt P05979)
T1 sequence (P05979 25-600): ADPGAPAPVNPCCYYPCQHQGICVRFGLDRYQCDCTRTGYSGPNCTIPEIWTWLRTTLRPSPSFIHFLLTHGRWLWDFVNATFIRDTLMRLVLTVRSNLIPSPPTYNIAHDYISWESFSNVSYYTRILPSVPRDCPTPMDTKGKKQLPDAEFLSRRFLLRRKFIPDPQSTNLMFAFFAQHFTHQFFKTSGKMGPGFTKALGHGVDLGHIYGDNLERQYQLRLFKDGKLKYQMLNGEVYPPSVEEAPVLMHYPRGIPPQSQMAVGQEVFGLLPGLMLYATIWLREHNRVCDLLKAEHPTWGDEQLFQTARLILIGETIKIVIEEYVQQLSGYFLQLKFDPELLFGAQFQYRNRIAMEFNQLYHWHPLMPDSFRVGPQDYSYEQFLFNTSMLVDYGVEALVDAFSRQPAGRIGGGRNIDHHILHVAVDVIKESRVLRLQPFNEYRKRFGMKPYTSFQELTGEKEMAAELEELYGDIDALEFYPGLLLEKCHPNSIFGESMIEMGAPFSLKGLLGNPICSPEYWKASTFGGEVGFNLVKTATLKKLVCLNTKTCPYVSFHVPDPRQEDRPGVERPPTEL
Protocol: Method 2: Prostaglandin Synthesis
0.3 ml of 0.03M potassium phosphate buffer of pH=8.0 contains 0.5 mg of enzyme (from seminal vesicles of sheep) (Biochemistry 10 (1971) 2372) or homogenate of the inner kidney medulla (Life Sciences 26 (1980) 765), 2.75 μg of ^14 C-arachidonic acid (0.5 μCi) and 0.5 mg of stimulator, and, if appropriate, 0.5 mg of stabilizer substance (see Table 1). After 10 minutes' incubation at 37° C., the reaction is stopped with 0.05 ml of 1.2M citric acid and the mixture is extracted with twice 0.5 ml of ethyl acetate, the combined extracts are freed of solvent, and the residue is dissolved in 0.2 ml of methanol, diluted 1:1 with water and separated by HPLC (nucleosil C-18 column, 125×4.6 mm, from Bischoff, Leonberg, Germany, solvent 300 ml of acetonitrile, 700 ml of water and 1 ml of glacial acetic acid and after 30 minutes pure methanol). The separation of the radioactive fractions is followed by a monitor (LB 504 from Berthold, Wildbad, Germany). The products formed, such as 6-keto-prostaglandin F2alpha, prostaglandin E2, prostaglandin F2alpha and prostaglandin D2, are separated under these conditions.
The prostaglandins PGE2, PGF2 alpha and PGD2 as products from arachidonic acid where quantified by means of method 2, and the sum was related as "total prostaglandin" to 100%. The quantity of "total prostaglandin" formed without the addition of a stimulator was set at f=1; the quantity formed after stimulation was related thereto. f=2 or f=3 therefore means twice or three times the stimulation under the conditions of method 2. The stability of the sample was investigated by means of method 1 (right-hand column). […] Values greater than 25-28% therefore represent a stabilization, and values smaller than 25-28% represent a destabilization. Example No. 1 was carried out without a stimulator. […] The substances test with respect to stabilization (see Method 1 for quantities) were: A) aqueous solution without stabilizer addition, B) ethanolic solution without further addition, C) pyridine solution, D) with rutin, predissolved in dimethyl sulfoxide, dimethyl sulfoxide then stripped off, E) like B) with lecithin, ethanol stripped off, F) like A) with cytochrome c from horse heart (from Boehringer, Mannheim, Germany), G) like A) with methemoglobin (human) (from Sigman, Munich, Germany), H) like A) with bovine serum albumin (from Calbiochem, Frankfurt, Germany), J) like A) or B), but solvent stripped off, K) like J) with cytochrome c, L) like J) with hemoglobin (human) (from Behringwerke, Marburg, Germany), and M) like J) with human serum albumin (from Behringwerke, Marburg, Germany).

[3] = Table 1, share of total prostaglandin (=100%)
[4] = seminal vesicle enzyme, 10 min, pH 8
[5] = A) aqueous solution without stabilizer addition
[6] = B) ethanolic solution without further addition
[7] = F) like A) with cytochrome c from horse heart
[8] = L) like J) with hemoglobin (human)
[9] = H) like A) with bovine serum albumin
[10] = Table 2, share of total prostaglandin

| Molecule | PGD2 % [2, 3] [%] | PGE2 % [2, 3] [%] | PGF2alpha % [2, 3] [%] | relative total prostaglandin f [2, 4] | Stabilization (% remaining unsaturated fatty acid by Method 1) [1] [%] | PGD2 % [2, 10] [%] | PGE2 % [2, 10] [%] | PGF2alpha % [2, 10] [%] | further results |
| --- | --- | --- | --- | --- | --- | --- | --- | --- | --- |
| O=C(O)CCc1c[nH]c2ccc(O)cc12 [Example 21] | 17 | 80 | 3 | 5.7 | – | – | – | – | Stability (% remaining fatty acid by Method 1) [1]: 96% |
| NCCc1c[nH]c2ccc(O)cc12 [Example 22] | 20 | 75 | 5 | 10.6 | – | – | – | – | Stability (% of remaining arachidonic acid by Method 1) [1, 5]: 16%; Stability (% of remaining arachidonic acid by Method 1) [1, 6]: 99%; Stability (% of remaining arachidonic acid by Method 1) ([1]; E) like B) with lecithin, ethanol stripped off): 96%; Stability (% of remaining arachidonic acid by Method 1) [1, 7]: 98%; Stability (% of remaining arachidonic acid by Method 1) ([1]; K) like J) with cytochrome c): 98%; Stability (% of remaining arachidonic acid by Method 1) [1, 8]: 100% |
| NCCc1c[nH]c2ccccc12 [Example 23] | 16 | 81 | 3 | – | – | – | – | – | Stability (% of remaining arachidonic acid by Method 1) [1, 5]: 20%; Stability (% of remaining arachidonic acid by Method 1) ([1]; D) with rutin, predissolved in dimethyl sulfoxide, dimethyl sulfoxide then stripped off): 100%; Stability (% of remaining arachidonic acid by Method 1) [1, 7]: 98%; Stability (% of remaining arachidonic acid by Method 1) ([1]; G) like A) with methemoglobin (human)): 97%; Stability (% of remaining arachidonic acid by Method 1) [1, 9]: 100% |
| O=C1N[C@@H](Cc2c[nH]c3ccccc23)C(=O)N[C@H]1Cc1ccc(O)cc1 [Example 32, Cyclo-TrpTyr] | – | – | – | – | – | – | – | – | Stabilization [1]: positive; Stimulation ([2]; Table 1, result in words): positive |
| N[C@@H](CS)C(=O)O [Example 33, L-cysteine] | 27 | 56 | 17 | – | – | – | – | – | Stability (% remaining fatty acid by Method 1) [1]: 94% |
| N[C@@H](CCC(=O)N[C@@H](CS)C(=O)NCC(=O)O)C(=O)O [Example 35, Glutathione] | 0 | 100 | 0 | 13.5 | – | – | – | – | Stability (% of remaining arachidonic acid by Method 1) [1, 5]: 0%; Stability (% of remaining arachidonic acid by Method 1) [1, 6]: 80%; Stability (% of remaining arachidonic acid by Method 1) ([1]; C) pyridine solution): 0%; Stability (% of remaining arachidonic acid by Method 1) [1, 9]: 91%; Stability (% of remaining arachidonic acid by Method 1) ([1]; J) like A) or B), but solvent stripped off): 0%; Stability (% of remaining arachidonic acid by Method 1) [1, 8]: 92%; undesired decomposition / byproducts of polyunsaturated fatty acid (arachidonic acid) with added stimulator [1]: markedly greater quantity |
| O=C(O)CCCCC1CCSS1 (stereo not shown) [Example 36, Lipoic acid] | 8 | 43 | 49 | – | – | – | – | – | undesired decomposition / byproducts of polyunsaturated fatty acid (arachidonic acid) with added stimulator [1]: fully suppressed; stimulation of prostaglandin synthesis with much smaller quantities of undesired byproducts ([2]; mixtures with polyunsaturated fatty acids such as arachidonic acid, result in words): stimulated |
| COC1=C(OC)C(=O)C(C/C=C(\C)CC/C=C(\C)CC/C=C(\C)CC/C=C(\C)CC/C=C(\C)CC/C=C(\C)CC/C=C(\C)CC/C=C(\C)CC/C=C(\C)CCC=C(C)C)=C(C)C1=O [Example 47, Vitamin Q10, reference compound] | – | – | – | 0.8 | 8 | 14 | 8 | 78 | – |
| O=C(CCc1ccc(O)cc1)c1c(O)cc(O)cc1O[C@@H]1O[C@H](CO)[C@@H](O)[C@H](O)[C@H]1O [Example 53, Phlorizin] | – | – | – | 3 | 97 | 18 | 80 | 2 | – |
| C[C@@H]1O[C@@H](O[C@H]2[C@H](Oc3cc(O)c4c(c3)O[C@H](c3ccc(O)cc3)CC4=O)O[C@H](CO)[C@@H](O)[C@@H]2O)[C@H](O)[C@H](O)[C@H]1O [Example 54, Naringin] | – | – | – | 2 | 96 | 15 | 83 | 2 | – |
| O=C1C[C@@H](c2ccc(O)cc2)Oc2cc(O)cc(O)c21 [Example 55, Naringenin] | – | – | – | 1.5 | 96 | 20 | 80 | 0 | – |
| O=c1c(O)c(-c2ccc(O)cc2)oc2cc(O)cc(O)c12 [Example 56, Kaempferol] | – | – | – | 0.5 | 98 | 13 | 76 | 11 | – |
| Oc1cc(O)c2c(c1)O[C@H](c1ccc(O)c(O)c1)[C@H](O)C2 [Example 59, Epicatechin] | – | – | – | – | 89 | 12 | 71 | 17 | – |
| TrpMetAspPhe [Example 28] | 20 | 73 | 7 | – | – | – | – | – | Stability (% remaining fatty acid by Method 1) [1]: 97%; relative total prostaglandin f ([2]; Table 1, 0.5 mg stimulator, 10 min 37° C., without stimulator f=1): 11.8 |
